Entries after “also recorded” stand apart in the source; their conditions may differ. Where no end group is shown, it is not given here. (C16)2 = not defined here
Columns and labels:
CT26.WT cells = assay: Blocking of liposome binding with free PR_b peptide-amphiphile (flow cytometry); format: cell-based, mouse; details: free peptide-amphiphile 200 μg/ml, 1 hr pre-incubation, 4° C.
Experimental: Flow cytometry: CT26.WT confluent cell monolayers were trypsinized (0.25% Trypsin+0.1% EDTA) and resuspended in ice-cold FB (fluorescent buffer: phosphate buffered saline (PBS) supplemented with 0.02% sodium azide and 2.5% fetal bovine serum) containing liposomes at a lipid concentration of 250 μM and a cell concentration of 1 million/ml in 15 ml centrifuge tubes. Tubes were incubated at 4° C. or 37° C. over a rotary shaker for the specified duration of time. Cells were then pelleted and washed twice in FB. Flow cytometric analysis was carried out immediately. For peptide blocking experiments, the protocol specified above was used except cells were incubated with 200 μg/ml of free peptide-amphiphile in FB for one hour prior to incubating the cells with the liposomes. For integrin α5β1 expression studies, CT26.WT confluent cell monolayers were trypsinized (0.25% Trypsin+0.1% EDTA) and resuspended in ice-cold FB at a cell concentration of 1 million/ml in 15 ml centrifuge tubes. Tubes were incubated at 4° C. with primary antibody (anti-integrin α5β1) or goat isotype control (goat IgG) over a rotary shaker for 35 min. Cells were then pelleted and washed twice in FB and then incubated again with the secondary antibody (anti-goat IgG FITC conjugated) for 35 min. Finally, cells were pelleted and washed twice. Flow cytometric analysis was carried out immediately. […]

HUVECs [1] = assay: HUVEC spreading on substrates (cell area); format: cell-based, human
Experimental: Cell spreading and fibronectin production experiments: Surface transferring, cell seeding, and incubation were done in the same manner as in the adhesion experiment, with a cell density of 497 cells/mm^2, and incubation times of 1, 12, 24, 48, and 72 hour. At the end of each incubation, the surfaces were removed, washed with […] of PBS, and fixed in 1 ml of 4% paraformaldehyde (Sigma) in PBS for 15 minutes at 37° C., 5% CO2. After washing with PBS, surfaces were first labeled for secreted fibronectin: surfaces were subjected to a blocking solution (0.1% BSA in PBS) for 30 minutes, incubated for 1 hour with a primary antibody specific for secreted fibronectin (mouse anti-human fibronectin (P1H11) monoclonal antibody (Chemicon Int.) at a 1:500 dilution in blocking solution, and then for 45 minutes with a secondary antibody (IgG fluorescein (FITC) conjugated antibody; Chemicon Int.) at a 1:200 dilution in PBS. As a final step, cell membranes and nuclei were stained using the Image-iT™ LIVE Plasma Membrane and Nuclear Labeling Kit following the manufacturer's protocol for labeling fixed cells (Molecular Probes). After final washing, surfaces were mounted onto glass slides and stored at 4° C. protected from light. An inverted fluorescent microscope (Nikon Eclipse TE200 with Pixcell II LCM) was used for imaging. Fibronectin production was assessed visually, by comparing 10-20 fluorescence images from two samples for each substrate (two independent experiments performed at different days). Cell spreading was quantified from two samples per substrate (two independent experiments performed at different days) by measuring cell area with the NIH imaging software.

HUVECs [2] = assay: HUVEC adhesion timed experiments on LB membranes (Example 2); format: cell-based, human
Experimental: Surface preparation: Each peptide-amphiphile was used to form homogenous LB membranes as in previous work (Kokkoli Langmuir 2004; 20:2397-2404), except that both the water and 15 mm mica disks used had been autoclaved for sterility. All depositions were done at a surface pressure between 41 and 47 mN/m, well below the collapse pressure and in the liquid-condensed or solid phase. Approximately 90 minutes before cells were seeded on the LB films to begin cell adhesion experiments, mica surfaces were transferred into 1× phosphate buffered saline (PBS), with particular care taken to ensure films were not exposed to air. After 5-10 minutes of equilibration, surfaces were transferred into 24-well plates containing a supplemented MCDB-131 basal media (Sigma), as described in Example 1. Following surface transfer, 24-well plates were moved to a 37° C., 5% CO2 incubator for 45-60 minutes. As a control, 22 mm diameter human fibronectin-coated coverslips (BD Biosciences), referred to as FN, were put into 12-well plates, covered with 2 ml of the supplemented media, and also incubated for 45-60 minutes.
Cell culture: Human umbilical vein endothelial cells, HUVECs (Cambrex Corporation), were cultured as described previously (see Example 1). Only cells from passage 3 were used in all studies.
Cell adhesion experiments: Flasks of HUVECs with at least 90% confluency were washed with 1×PBS, trypsinized with 0.25% Trypsin-EDTA (Fisher Scientific), and neutralized with 2% fetal bovine serum in MCDB-131 basal media. The suspended cells from all flasks were placed in one 50 ml centrifuge tube and centrifuged at 1000 rpm for 5 minutes. The media was removed and the cell pellet was resuspended in the supplemented media described above. A hemocytometer was used to count the cells and then 497 cells/mm^2 were seeded onto both LB and FN surfaces. Surfaces were incubated with cells at 37° C., 5% CO2 for 1, 4, or 12 hours. Cell adhesion following these times was determined using the CyQuant cell proliferation assay kit (Molecular Probes), which measures the fluorescence of a cellular nucleic acid-binding dye using the SpectraMAX GeminiXS plate reader (Molecular Devices). Standard calibration curves were created within each experiment for both 12- and 24-well plates.

(C16)2-Glu-C2-KSSPHSRNSGSGSGSGSGRGDSP ({(C16)2-Glu-C2}-KSSPHSRNSGSGSGSGSGRGDSP; not fully specified; reading uncertain) [PR_b]
Blocking of binding of PR_b and GRGDSP targeted stealth liposomes (low PEG2000) to CT26.WT cells (CT26.WT cells): completely blocks the binding; also recorded: completely blocked | HUVEC spreading (cell area) (HUVECs [1]; 1-24 hours): mostly spread | HUVEC spreading, rank among surfaces (HUVECs [1]; all times examined, 1-72 hours): spread the most | HUVEC adhesion compared with FN, overall (HUVECs [2]; 1, 4 and 12 hours): outperform the positive control fibronectin at all times; also recorded: better than FN at all times; also recorded: statistically better than both Pr_f and the control FN | HUVEC adhesion compared with Pr_c (HUVECs [2]; 1, 4 and 12 hours): significantly better than Pr_c at all times except 1 hour | HUVEC adhesion compared with Pr_d (HUVECs [2]; 1, 4 and 12 hours): better than Pr_d at all times except 4 hours | HUVEC adhesion compared with Pr_f (HUVECs [2]; 1, 4 and 12 hours): statistically better than both Pr_f and the control FN; also recorded: much better | HUVEC adhesion level (description) (HUVECs [2]; 1, 4 and 12 hours): excellent adhesion at all times; also recorded: highest level of adhesion | HUVEC adhesion compared with Pr_e (HUVECs [2]; 1 and 4 hours): no statistical difference | HUVEC adhesion compared with Pr_e (HUVECs [2]; 12 hours): outperforms Pr_e; also recorded: better than Pr_e | Maintenance / decay of HUVEC adhesion over time (HUVECs [2]; up to 12 hours): most consistent adhesion over 12 hours; also recorded: smallest amount of decay over 12 hours; also recorded: least drop-off between 4 and 12 hours; also recorded: least amount of decay

Reference: US8343539B2, “Compounds that bind α5β1 integrin and methods of use” (Regents of the University of Minnesota, priority 2006, dated 2013)
